Data from paper PMC7778606, “Development of the phenylpyrazolo[3,4-d]pyrimidine-based, insulin-like growth factor receptor/Src/AXL-targeting small molecule kinase inhibitor” (Theranostics, 2021).

Key:
Assay in all cases: KINOMEscan competition binding assay
[1] = molecular target: T1, ZAP70 (Homo sapiens, UniProt P43403); conditions: LL6 at 10 μM; read-out: Percent Control
T1 construct: purchased DiscoverX KINOMEscan
Procedure: (§1) Kd values were obtained by KINOMEscan from DiscoverX (San Diego, CA, USA). To briefly summarize, Kd was measured by a competition binding assay that quantitatively measures the ability of a compound to compete with an immobilized ligand. […] Dose response curves of 11 points are obtained for Kd values, which are measured in duplicate. See more details in the cited references [39]-[42] and see also at www.discoverx.com.

[2] = molecular target: T2, TGFBR1 (Homo sapiens, UniProt P36897); conditions: LL6 at 10 μM; read-out: Percent Control
T2 construct: purchased DiscoverX KINOMEscan
Procedure: as §1

[3] = molecular target: T3, RET (Homo sapiens, UniProt P07949); conditions: LL6 at 10 μM; read-out: Percent Control
T3 construct: purchased DiscoverX KINOMEscan
Procedure: as §1

[4] = molecular target: T4, SRPK3 (Homo sapiens, UniProt Q9UPE1); conditions: LL6 at 10 μM; read-out: Percent Control
T4 construct: purchased DiscoverX KINOMEscan
Procedure: as §1

[5] = molecular target: T5, ROCK2 (Homo sapiens, UniProt O75116); conditions: LL6 at 10 μM; read-out: Percent Control
T5 construct: purchased DiscoverX KINOMEscan
Procedure: as §1

[6] = molecular target: T6, PKAC-alpha (Homo sapiens, UniProt P17612); conditions: LL6 at 10 μM; read-out: Percent Control
T6 construct: purchased DiscoverX KINOMEscan
Procedure: as §1

[7] = molecular target: T7, DYRK1B (Homo sapiens, UniProt Q9Y463); conditions: LL6 at 10 μM; read-out: Percent Control
T7 construct: purchased DiscoverX KINOMEscan
Procedure: as §1

[8] = molecular target: T8, RAF1 (Homo sapiens, UniProt P04049); conditions: LL6 at 10 μM; read-out: Percent Control
T8 construct: purchased DiscoverX KINOMEscan
Procedure: as §1

[9] = molecular target: T9, IR (Homo sapiens, UniProt P06213)
T9 construct: purchased DiscoverX (KINOMEscan service)
Procedure: as §1

[10] = molecular target: T10, JNK1 (Homo sapiens, UniProt P45983); conditions: LL6 at 10 μM; read-out: Percent Control
T10 construct: purchased DiscoverX KINOMEscan
Procedure: as §1

[11] = molecular target: T11, PDGFRB (Homo sapiens, UniProt P09619)
T11 construct: purchased DiscoverX KINOMEscan
Procedure: as §1

[12] = molecular target: T12, JAK3(JH1domain-catalytic) (Homo sapiens, UniProt P52333); conditions: LL6 at 10 μM; read-out: Percent Control
T12 construct: JAK3(JH1domain-catalytic); purchased DiscoverX KINOMEscan
Procedure: as §1

[13] = molecular target: T13, BTK (Homo sapiens, UniProt Q06187); conditions: LL6 at 10 μM; read-out: Percent Control
T13 construct: purchased DiscoverX KINOMEscan
Procedure: as §1

[14] = molecular target: T14, PLK1 (Homo sapiens, UniProt P53350); conditions: LL6 at 10 μM; read-out: Percent Control
T14 construct: purchased DiscoverX KINOMEscan
Procedure: as §1

[15] = molecular target: T15, ERBB2 (Homo sapiens, UniProt P04626); conditions: LL6 at 10 μM; read-out: Percent Control
T15 construct: purchased DiscoverX KINOMEscan
Procedure: as §1

[16] = molecular target: T16, KIT(D816V) (Homo sapiens, UniProt P10721, D816V); conditions: LL6 at 10 μM; read-out: Percent Control
T16 construct: purchased DiscoverX KINOMEscan
Procedure: as §1

[17] = molecular target: T17, FLT3 (Homo sapiens, UniProt P36888); conditions: LL6 at 10 μM; read-out: Percent Control
T17 construct: purchased DiscoverX KINOMEscan
Procedure: as §1

[18] = molecular target: T18, PIM1 (Homo sapiens, UniProt P11309); conditions: LL6 at 10 μM; read-out: Percent Control
T18 construct: purchased DiscoverX KINOMEscan
Procedure: as §1

[19] = molecular target: T19, YANK3 (Homo sapiens, UniProt Q86UX6); conditions: LL6 at 10 μM; read-out: Percent Control
T19 construct: purchased DiscoverX KINOMEscan
Procedure: as §1

[20] = molecular target: T20, MARK3 (Homo sapiens, UniProt P27448); conditions: LL6 at 10 μM; read-out: Percent Control
T20 construct: purchased DiscoverX KINOMEscan
Procedure: as §1

[21] = molecular target: T21, DCAMKL1 (Homo sapiens, UniProt O15075); conditions: LL6 at 10 μM; read-out: Percent Control
T21 construct: purchased DiscoverX KINOMEscan
Procedure: as §1

[22] = molecular target: T22, CSNK1D (Homo sapiens, UniProt P48730); conditions: LL6 at 10 μM; read-out: Percent Control
T22 construct: purchased DiscoverX KINOMEscan
Procedure: as §1

[23] = molecular target: T23, PDPK1 (Homo sapiens, UniProt O15530); conditions: LL6 at 10 μM; read-out: Percent Control
T23 construct: purchased DiscoverX KINOMEscan
Procedure: as §1

[24] = molecular target: T24, CSNK1G2 (Homo sapiens, UniProt P78368); conditions: LL6 at 10 μM; read-out: Percent Control
T24 construct: purchased DiscoverX KINOMEscan
Procedure: as §1

[25] = molecular target: T25, MLK1 (Homo sapiens, UniProt P80192); conditions: LL6 at 10 μM; read-out: Percent Control
T25 construct: purchased DiscoverX KINOMEscan
Procedure: as §1

[26] = molecular target: T26, PAK4 (Homo sapiens, UniProt O96013); conditions: LL6 at 10 μM; read-out: Percent Control
T26 construct: purchased DiscoverX KINOMEscan
Procedure: as §1

[27] = molecular target: T27, CHEK1 (Homo sapiens, UniProt O14757); conditions: LL6 at 10 μM; read-out: Percent Control
T27 construct: purchased DiscoverX KINOMEscan
Procedure: as §1

[28] = molecular target: T28, EPHA2 (Homo sapiens, UniProt P29317); conditions: LL6 at 10 μM; read-out: Percent Control
T28 construct: purchased DiscoverX KINOMEscan
Procedure: as §1

[29] = molecular target: T29, PDGFRA (Homo sapiens, UniProt P16234); conditions: LL6 at 10 μM; read-out: Percent Control
T29 construct: purchased DiscoverX KINOMEscan
Procedure: as §1

[30] = molecular target: T30, TRKA (Homo sapiens, UniProt P04629); conditions: LL6 at 10 μM; read-out: Percent Control
T30 construct: purchased DiscoverX KINOMEscan
Procedure: as §1

[31] = molecular target: T31, MKNK1 (Homo sapiens, UniProt Q9BUB5); conditions: LL6 at 10 μM; read-out: Percent Control
T31 construct: purchased DiscoverX KINOMEscan
Procedure: as §1

[32] = molecular target: T32, JNK2 (Homo sapiens, UniProt P45984); conditions: LL6 at 10 μM; read-out: Percent Control
T32 construct: purchased DiscoverX KINOMEscan
Procedure: as §1

[33] = molecular target: T33, p38-beta (Homo sapiens, UniProt Q15759); conditions: LL6 at 10 μM; read-out: Percent Control
T33 construct: purchased DiscoverX KINOMEscan
Procedure: as §1

[34] = molecular target: T34, TYK2(JH1domain-catalytic) (Homo sapiens, UniProt P29597); conditions: LL6 at 10 μM; read-out: Percent Control
T34 construct: TYK2(JH1domain-catalytic); purchased DiscoverX KINOMEscan
Procedure: as §1

[35] = molecular target: T35, IKK-alpha (Homo sapiens, UniProt O15111); conditions: LL6 at 10 μM; read-out: Percent Control
T35 construct: purchased DiscoverX KINOMEscan
Procedure: as §1

[36] = molecular target: T36, VEGFR2 (Homo sapiens, UniProt P35968); conditions: LL6 at 10 μM; read-out: Percent Control
T36 construct: purchased DiscoverX KINOMEscan
Procedure: as §1

[37] = molecular target: T37, MKNK2 (Homo sapiens, UniProt Q9HBH9); conditions: LL6 at 10 μM; read-out: Percent Control
T37 construct: purchased DiscoverX KINOMEscan
Procedure: as §1

[38] = molecular target: T38, FGFR2 (Homo sapiens, UniProt P21802); conditions: LL6 at 10 μM; read-out: Percent Control
T38 construct: purchased DiscoverX KINOMEscan
Procedure: as §1

[39] = molecular target: T39, PIM3 (Homo sapiens, UniProt Q86V86); conditions: LL6 at 10 μM; read-out: Percent Control
T39 construct: purchased DiscoverX KINOMEscan
Procedure: as §1

[40] = molecular target: T40, ALK (Homo sapiens, UniProt Q9UM73); conditions: LL6 at 10 μM; read-out: Percent Control
T40 construct: purchased DiscoverX KINOMEscan
Procedure: as §1

[41] = molecular target: T41, PIM2 (Homo sapiens, UniProt Q9P1W9); conditions: LL6 at 10 μM; read-out: Percent Control
T41 construct: purchased DiscoverX KINOMEscan
Procedure: as §1

[42] = LL6 at 10 μM, read-out: Percent Control

Nc1ncnc2c1c(-c1ccc(Cl)cc1)nn2CCn1cc(COc2ccc(Nc3nccc(Nc4cnc5ccccc5c4)n3)cc2)nn1 [LL6]
remaining binding at 10 µM [1]: 100% | remaining binding at 10 µM [2]: 46% | remaining binding at 10 µM [3]: 81% | remaining binding at 10 µM [4]: 84% | remaining binding at 10 µM [5]: 100% | remaining binding at 10 µM [6]: 36% | remaining binding at 10 µM [7]: 55% | remaining binding at 10 µM [8]: 82% | Kd ([9]; IR, 11-point dose response, duplicate): not accurately measurable | inhibition at 10 µM ([9]; IR, LL6 at 10 µM): > 65% | remaining binding at 10 µM [9, 42]: 35% | remaining binding at 10 µM [10]: 100% | remaining binding at 10 µM [11, 42]: 5% | inhibition at 10 µM ([11]; PDGFRB, LL6 at 10 µM): > 65% | remaining binding at 10 µM [12]: 100% | remaining binding at 10 µM [13]: 100% | remaining binding at 10 µM [14]: 100% | remaining binding at 10 µM [15]: 100% | remaining binding at 10 µM [16]: 66% | remaining binding at 10 µM [17]: 43% | remaining binding at 10 µM [18]: 98% | remaining binding at 10 µM [19]: 100% | remaining binding at 10 µM [20]: 100% | remaining binding at 10 µM [21]: 100% | remaining binding at 10 µM [22]: 14% | remaining binding at 10 µM [23]: 87% | remaining binding at 10 µM [24]: 63% | remaining binding at 10 µM [25]: 75% | remaining binding at 10 µM [26]: 97% | remaining binding at 10 µM [27]: 100% | remaining binding at 10 µM [28]: 100% | remaining binding at 10 µM [29]: 64% | remaining binding at 10 µM [30]: 100% | remaining binding at 10 µM [31]: 100% | remaining binding at 10 µM [32]: 67% | remaining binding at 10 µM [33]: 65% | remaining binding at 10 µM [34]: 100% | remaining binding at 10 µM [35]: 100% | remaining binding at 10 µM [36]: 65% | remaining binding at 10 µM [37]: 89% | remaining binding at 10 µM [38]: 62% | remaining binding at 10 µM [39]: 100% | remaining binding at 10 µM [40]: 100% | remaining binding at 10 µM [41]: 100%
